This note sets out measurements from ChEMBL document CHEMBL1136027, “Design, synthesis and structure-activity relationships of novel imidazolo[1,2-a]pyrimid-5-ones as potent GnRH receptor antagonists” (Bioorg Med Chem Lett, 2002).

Structures are written as SMILES.

Tested on in one data set: not listed separately
Briefly: Half-life in rat plasma was determined.
Conditions: not given; call rule not given here
In kind it is ADME, organism-based.
For orientation: half-life means the time in which the quantity being followed falls by half. High values mean slow decline, low ones rapid decline. `CCC(CC)OC(=O)c1cn(Cc2ccccc2F)c2cc(-c3ccc(NC(C)=O)cc3)c(CN(C)CCc3ccccn3)n2c1=O` returned a half-life of 28 min.

In a further data set the target is T1, Gonadotropin-releasing hormone receptor (Homo sapiens, UniProt P30968).
T1 sequence (P30968 whole entry): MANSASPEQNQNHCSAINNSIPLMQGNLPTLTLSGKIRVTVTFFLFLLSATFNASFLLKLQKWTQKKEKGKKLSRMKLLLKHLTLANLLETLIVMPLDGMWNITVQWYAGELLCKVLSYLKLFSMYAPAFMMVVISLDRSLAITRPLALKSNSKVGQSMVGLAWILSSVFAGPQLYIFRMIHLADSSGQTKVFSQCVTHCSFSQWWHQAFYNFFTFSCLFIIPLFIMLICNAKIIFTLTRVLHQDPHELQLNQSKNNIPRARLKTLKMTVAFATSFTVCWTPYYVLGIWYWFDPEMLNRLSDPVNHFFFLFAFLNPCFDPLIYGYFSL
Briefly: Binding evaluated in cloned human Gonadotropin-releasing hormone receptor by displacement of [125 I-Tyr, DLeu, NMeLeu, Pro-NEt]GnRH agonist.
Conditions: not given
Broadly, the Ki is a measure of affinity in units of concentration, obtained from inhibition or displacement. `COc1ccc(-c2nc3n(Cc4ccccc4F)c(C)c(-c4ccc5c(c4)OCO5)c(=O)n3c2CN(C)C2CCN(C)CC2)cc1`: the Ki entry is given as “Not Active”.

Staying with this data set, now noted: read-out: Ki.
As to `COc1ccc(-c2nc3n(Cc4ccccc4F)c(C)c(Br)c(=O)n3c2CN(C)CCc2ccccn2)cc1`, the Ki was 2500 nM.

With `CCC(CC)OC(=O)c1cn(Cc2ccccc2F)c2nc(-c3ccc(OC)cc3)c(CN(C)CCc3ccccn3)n2c1=O`, the Ki was found to be 230 nM.

As for `COc1ccc(-c2nc3n(Cc4ccccc4F)c(C)c(-c4ccc(OC)c(OC)c4)c(=O)n3c2CN(C)CCc2ccccn2)cc1`, the Ki is 110 nM.

With `COc1ccc(-c2nc3n(Cc4ccccc4F)c(C)c(-c4ccc5c(c4)OCO5)c(=O)n3c2CN(C)Cc2ccccc2)cc1`, the Ki was found to be 47 nM.

As to `COc1ccc(-c2nc3n(Cc4ccccc4F)c(C)c(-c4ccccc4OC)c(=O)n3c2CN(C)CCc2ccccn2)cc1`, the Ki was 65 nM.

Take `COc1ccc(-c2nc3n(Cc4ccccc4F)c(C)c(-c4cc(Cl)cc(Cl)c4)c(=O)n3c2CN(C)CCc2ccccn2)cc1`: the inhibition constant Ki was 100 nM.

For the compound `COc1ccc(-c2nc3n(Cc4ccccc4F)c(C)c(-c4ccc5c(c4)OCO5)c(=O)n3c2CN(C)CCc2ccncc2)cc1`, the Ki was determined as 1400 nM.

On to `COc1ccc(-c2nc3n(Cc4ccccc4F)c(C)c(-c4cccc(F)c4)c(=O)n3c2CN(C)CCc2ccccn2)cc1`, for which the Ki amounted to 79 nM.

Consider `COCCN(C)Cc1c(-c2ccc(OC)cc2)nc2n(Cc3ccccc3F)c(C)c(-c3ccc4c(c3)OCO4)c(=O)n12`, for which the Ki is 150 nM.

Consider `COc1ccc(-c2nc3n(Cc4ccccc4F)c(C)c(-c4ccc5c(c4)OCO5)c(=O)n3c2CN2CCCN(C)CC2)cc1`, for which the Ki is 9500 nM.

With `CCN(CC)CCN(C)Cc1c(-c2ccc(OC)cc2)nc2n(Cc3ccccc3F)c(C)c(-c3ccc4c(c3)OCO4)c(=O)n12`, the Ki amounted to 130 nM.

With `COc1ccc(-c2nc3n(Cc4ccccc4F)c(C)c(-c4cccc(C(F)(F)F)c4)c(=O)n3c2CN(C)CCc2ccccn2)cc1`, the Ki was found to be 140 nM.

Take `COc1ccc(-c2nc3n(Cc4ccccc4F)c(C)c(-c4cccc(OC)c4)c(=O)n3c2CN(C)CCc2ccccn2)cc1`: the Ki amounted to 4.6 nM.

Take `COc1ccc(-c2nc3n(Cc4ccccc4F)c(C)c(-c4ccc5c(c4)OCO5)c(=O)n3c2CN2CCOCC2)cc1`: the Ki stood at 28000 nM.

As to `COc1ccc(-c2nc3n(Cc4ccccc4F)c(C)c(-c4ccc5c(c4)OCO5)c(=O)n3c2CN(C)CCc2ccccc2)cc1`, the Ki came to 110 nM.

Consider `COc1ccc(-c2nc3n(Cc4ccccc4F)c(C)c(-c4ccc5c(c4)OCO5)c(=O)n3c2CN(C)CCc2ccccn2)cc1`, for which the Ki was 11 nM.

On to `COc1ccc(-c2nc3n(Cc4ccccc4F)c(C)c(-c4cc(OC)c(OC)c(OC)c4)c(=O)n3c2CN(C)CCc2ccccn2)cc1`, for which the Ki came out at 370 nM.

Regarding `COc1ccc(-c2nc3n(Cc4ccccc4F)c(C)c(-c4cccc(S)c4)c(=O)n3c2CN(C)CCc2ccccn2)cc1`, the Ki is 56 nM.

For `CCCCN(C)Cc1c(-c2ccc(OC)cc2)nc2n(Cc3ccccc3F)c(C)c(-c3ccc4c(c3)OCO4)c(=O)n12`, the Ki turned out to be 220 nM.

In the case of `COc1ccc(-c2nc3n(Cc4ccccc4F)c(C)c(-c4ccc(OC)cc4)c(=O)n3c2CN(C)CCc2ccccn2)cc1`, the inhibition constant Ki was determined as 18 nM.

Take `COc1ccc(-c2nc3n(Cc4ccccc4F)c(C)c(-c4ccc5c(c4)OCO5)c(=O)n3c2CN(C)CCc2ccccc2F)cc1`: the Ki is 67 nM.
